Assay results published in ChEMBL document CHEMBL1135161, “Antimalarial activities of ring-substituted bioimidazoles” (Bioorg Med Chem Lett, 2002).
Calls of active or inactive are those of the source. The calls are words filed in the database; no cut-off is given here.

Tests used:
Plasmodium falciparum [1] = experiment: In vitro antimalarial activity against chloroquine-sensitive Plasmodium falciparum; assay type: functional, organism-based
Mus musculus [2] = experiment: In vivo antimalarial activity of compound against Plasmodium berghei infected in mice (Mus musculus) model; Inactive; assay type: functional, organism-based
Plasmodium falciparum [3] = experiment: In vitro antimalarial activity against chloroquine-resistant Plasmodium falciparum; assay type: functional, organism-based
Mus musculus [4] = experiment: In vivo antimalarial activity of compound against Plasmodium berghei infected in mice (Mus musculus) model. Compound active at given dose.; assay type: functional

IC50 (Plasmodium falciparum [1]) [µM]	Structure (SMILES)	further results
> 500	Cn1cc(CC(N)C(=O)O)nc1C(C)(C)C (stereo not given)	
> 500	CCc1nc(CC(N)C(=O)O)c[nH]1 (stereo not given)	
> 500	Cn1cc(CC(N)C(=O)O)nc1C1CCCCC1 (stereo not given)	
276	NC(Cc1c[nH]c(C2CCCC2)n1)C(=O)O (stereo not given)	
120	CC(C)n1cnc(CC(N)C(=O)O)c1 (stereo not given)	
> 500	Cc1nc(CC(N)C(=O)O)c[nH]1 (stereo not given)	
> 500	CC(C)c1nc(CC(N)C(=O)O)cn1C (stereo not given)	
255	NC(Cc1c[nH]c(C2CCC2)n1)C(=O)O (stereo not given)	
350	NC(Cc1c[nH]c(C2CCCCC2)n1)C(=O)O (stereo not given)	
157	CC(C)(C)c1nc(CC(N)C(=O)O)cn1Cc1ccccc1 (stereo not given)	
450	NC(Cc1c[nH]c(C23CC4CC(CC(C4)C2)C3)n1)C(=O)O (stereo not given)	
> 500	CCn1cnc(CC(N)C(=O)O)c1 (stereo not given)	
> 500	NC(Cc1cnc(C2CCCCC2)n1Cc1ccccc1)C(=O)O (stereo not given)	
> 500	Cn1cnc(CC(N)C(=O)O)c1 (stereo not given)	

The remaining lines, values behind:

Structure (SMILES)	IC50 (Plasmodium falciparum [1]) [µM]	further results
NCCc1cnc(C2CCCCC2)n1Cc1ccccc1	> 500	
NC(Cc1cn(Cc2ccccc2)cn1)C(=O)O (stereo not given)	360	
NCCc1c[nH]c(C2CCCC2)n1	489	
C=CCn1cnc(CCN)c1	176	
CC(C)(C)c1ncc(CC(N)C(=O)O)n1Cc1ccccc1 (stereo not given)	399	
NCCc1cnc(C23CC4CC(CC(C4)C2)C3)n1Cc1ccccc1	> 500	
Cn1c(CC(N)C(=O)O)cnc1C(C)(C)C (stereo not given)	> 500	
NC(Cc1cnc(C23CC4CC(CC(C4)C2)C3)n1Cc1ccccc1)C(=O)O (stereo not given)	> 500	
CC(C)c1nc(CC(N)C(=O)O)cn1Cc1ccccc1 (stereo not given)	89	DOSE (Mus musculus [2]): inactive; IC50 (Plasmodium falciparum [3]): 245 µM
CC(C)c1nc(CC(N)C(=O)O)c[nH]1 (stereo not given)	6.3	Dose (Mus musculus [4]): 100 mg/kg; IC50 (Plasmodium falciparum [3]): 6.5 µM
CC(C)c1ncc(CCN)n1Cc1ccccc1	188	
CC(C)c1ncc(CC(N)C(=O)O)n1Cc1ccccc1 (stereo not given)	355	
CC(C)(C)c1ncc(CCN)n1Cc1ccccc1	233	
CC(C)c1nc(CCN)cn1C	387	
Cn1cnc(CCN)c1 [N-METHYLHISTAMINE]	> 500	
CC(C)(C)c1nc(CC(N)C(=O)O)c[nH]1 (stereo not given)	25.8	DOSE (Mus musculus [2]): inactive; IC50 (Plasmodium falciparum [3]): 3.85 µM
CCn1cnc(CCN)c1	> 500	
NCCc1cn(Cc2ccccc2)cn1	20.7	DOSE (Mus musculus [2]): inactive; IC50 (Plasmodium falciparum [3]): 22.5 µM
Cc1ncc(CCN)[nH]1 [2-METHYLHISTAMINE]	> 500	
CC(C)c1nc(CCN)c[nH]1	4.7	Dose (Mus musculus [4]): 100 mg/kg; IC50 (Plasmodium falciparum [3]): 4.8 µM
NCCc1c[nH]c(C2CCC2)n1	367	
CC(C)(C)c1nc(CCN)c[nH]1	15.5	DOSE (Mus musculus [2]): inactive; IC50 (Plasmodium falciparum [3]): 30.3 µM
CC(C)n1cnc(CCN)c1	9.6	Dose (Mus musculus [4]): 100 mg/kg; IC50 (Plasmodium falciparum [3]): 10.4 µM
NCCc1c[nH]c(C2CCCCC2)n1	> 500	
CCc1nc(CCN)c[nH]1	> 500	
Cn1cc(CCN)nc1C1CCCCC1	> 500	
Cn1cc(CCN)nc1C(C)(C)C	459	
